{
  "source": "patent US20250171457A1",
  "about": "“NITROGEN-CONTAINING HETEROCYCLIC COMPOUND HAVING NRF2 ACTIVATION EFFECT” (CHUGAI SEIYAKU KABUSHIKI KAISHA, priority 2022, published 2025)",
  "data": [
    {"tested_on": "Nrf2 transcriptional activity (pARE-Luc reporter) in HepG2 cells", "assay": "In vitro Nrf2 transcriptional activity measurement by ARE-dependent reporter assay in HepG2 cell", "assay_type": "cell-based, human", "conditions": "Homo sapiens; HepG2 cells transfected with pARE-Luc, 4 hours at 37° C.; luciferase activity of Example 1-54 or Example 17-23 at 3.75 μM defined as 100%", "in_short": "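Luminescence readout (Bright-Glo) after 4 h, 37° C compound exposure of HepG2 cells carrying the ARE-luciferase vector pGL4.37. Each well converted to % response versus reference compound at 3.75 μM, and EC50 derived from dose-response curves.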", "units": {"EC50": "nM"}, "values": [
      {"compound": "COCCOc1cc(Cl)c(C(=O)N2COc3c(cccc3-c3cc(N4CCOCC4)c(C(=O)O)cc3F)C2)cc1OC", "note": "[Compound 4-55, 4-[3-[2-Chloro-5-methoxy-4-(2-methoxyethoxy)benzoyl]-2,4-dihydro-1,3-benzoxazin-8-yl]-5-fluoro-2-morpholin-4-ylbenzoic acid]", "EC50": 2},
      {"compound": "COC1CC2(C1)CN(c1cc(Cl)c(C(=O)N3COc4c(cccc4-c4cc(N5CC6CCC(C5)O6)c(C(=O)O)cc4F)C3)c(Cl)c1)C2", "note": "[Compound 4-56, 4-[3-[2,6-Dichloro-4-(6-methoxy-2-azaspiro[3.3]heptan-2-yl)benzoyl]-2,4-dihydro-1,3-benzoxazin-8-yl]-5-fluoro-2-(8-oxa-3-azabicyclo[3.2.1]octan-3-yl)benzoic acid]", "EC50": 1.9},
      {"compound": "CC1(N2CCN(c3cc(Cl)c(C(=O)N4COc5c(cccc5-c5cc(N6CCOCC6)c(C(=O)O)cc5F)C4)c(Cl)c3)CC2)COC1", "note": "[Compound 4-57, 4-[3-[2,6-Dichloro-4-[4-(3-methyloxetan-3-yl)piperazin-1-yl]benzoyl]-2,4-dihydro-1,3-benzoxazin-8-yl]-5-fluoro-2-morpholin-4-ylbenzoic acid]", "EC50": 4.8},
      {"compound": "O=C(O)c1cc(F)c(-c2cccc3c2OCN(C(=O)c2c(Cl)cc(N4CC(N5CCOCC5)C4)cc2Cl)C3)cc1N1C2CCC1COC2", "note": "[Compound 4-58, 4-[3-[2,6-Dichloro-4-(3-morpholin-4-ylazetidin-1-yl)benzoyl]-2,4-dihydro-1,3-benzoxazin-8-yl]-5-fluoro-2-(3-oxa-8-azabicyclo[3.2.1]octan-8-yl)benzoic acid]", "EC50": 5.2},
      {"compound": "O=C(O)c1cc(F)c(-c2cccc3c2OCN(C(=O)c2c(Cl)cc(N4CCN(C5COC5)CC4)cc2Cl)C3)cc1N1C2CCC1COC2", "note": "[Compound 4-59, 4-[3-[2,6-Dichloro-4-[4-(oxetan-3-yl)piperazin-1-yl]benzoyl]-2,4-dihydro-1,3-benzoxazin-8-yl]-5-fluoro-2-(3-oxa-8-azabicyclo[3.2.1]octan-8-yl)benzoic acid]", "EC50": 12},
      {"compound": "CN1CCN(c2cc(Cl)c(C(=O)N3COc4c(cccc4-c4cc(N5C6CCC5COC6)c(C(=O)O)cc4F)C3)c(Cl)c2)CC1", "note": "[Compound 4-60, 4-[3-[2,6-Dichloro-4-(4-methylpiperazin-1-yl)benzoyl]-2,4-dihydro-1,3-benzoxazin-8-yl]-5-fluoro-2-(3-oxa-8-azabicyclo[3.2.1]octan-8-yl)benzoic acid]", "EC50": 7.5},
      {"compound": "COC1COC2(CN(c3cc(Cl)c(C(=O)N4COc5c(cccc5-c5cc(N6C7CCC6COC7)c(C(=O)O)cc5F)C4)c(Cl)c3)C2)OC1", "note": "[Compound 5-3, 4-[3-[2,6-Dichloro-4-(7-methoxy-5,9-dioxa-2-azaspiro[3.5]nonan-2-yl)benzoyl]-2,4-dihydro-1,3-benzoxazin-8-yl]-5-fluoro-2-(3-oxa-8-azabicyclo[3.2.1]octan-8-yl)benzoic acid]", "EC50": 9.5},
      {"compound": "O=C(O)c1cc(F)c(-c2cccc3c2OCN(C(=O)c2c(Cl)cc(N4CC5(C4)OCCO5)cc2Cl)C3)cc1N1C2CCC1COC2", "note": "[Compound 5-4, 4-[3-[2,6-Dichloro-4-(5,8-dioxa-2-azaspiro[3.4]octan-2-yl)benzoyl]-2,4-dihydro-1,3-benzoxazin-8-yl]-5-fluoro-2-(3-oxa-8-azabicyclo[3.2.1]octan-8-yl)benzoic acid]", "EC50": 2.4},
      {"compound": "O=C(O)c1cc(F)c(-c2cccc3c2OCN(C(=O)c2c(Cl)cc(N4CC5(C4)OCC4(CC4)CO5)cc2Cl)C3)cc1N1C2CCC1COC2", "note": "[Compound 5-5, 4-[3-[2,6-Dichloro-4-(5,10-dioxa-8-azaspiro[2.2.36.23]undecan-8-yl)benzoyl]-2,4-dihydro-1,3-benzoxazin-8-yl]-5-fluoro-2-(3-oxa-8-azabicyclo[3.2.1]octan-8-yl)benzoic acid]", "EC50": 1},
      {"compound": "O=C(O)c1cc(F)c(-c2cccc3c2OCN(C(=O)c2c(Cl)cc(N4CC5(C4)OCCCCO5)cc2Cl)C3)cc1N1C2CCC1COC2", "note": "[Compound 5-6, 4-[3-[2,6-Dichloro-4-(5,10-dioxa-2-azaspiro[3.6]decan-2-yl)benzoyl]-2,4-dihydro-1,3-benzoxazin-8-yl]-5-fluoro-2-(3-oxa-8-azabicyclo[3.2.1]octan-8-yl)benzoic acid]", "EC50": 2.3},
      {"compound": "O=C(O)c1cc(F)c(-c2cccc3c2OCN(C(=O)c2c(Cl)cc(N4CC5(C4)OCC4(CCC4)CO5)cc2Cl)C3)cc1N1C2CCC1COC2", "note": "[Compound 5-8, 4-[3-[2,6-Dichloro-4-(6,11-dioxa-9-azadispiro[3.2.37.24]dodecan-9-yl)benzoyl]-2,4-dihydro-1,3-benzoxazin-8-yl]-5-fluoro-2-(3-oxa-8-azabicyclo[3.2.1]octan-8-yl)benzoic acid]", "EC50": 2},
      {"compound": "COC1(OC)CC2(CN(c3cc(Cl)c(C(=O)N4COc5c(cccc5-c5cc(N6C7CCC6COC7)c(C(=O)O)cc5F)C4)c(Cl)c3)C2)C1", "note": "[Compound 5-11, 4-[3-[2,6-Dichloro-4-(6,6-dimethoxy-2-azaspiro[3.3]heptan-2-yl)benzoyl]-2,4-dihydro-1,3-benzoxazin-8-yl]-5-fluoro-2-(3-oxa-8-azabicyclo[3.2.1]octan-8-yl)benzoic acid]", "EC50": 3.4},
      {"compound": "COC1(OC)CN(c2cc(Cl)c(C(=O)N3COc4c(cccc4-c4cc(N5C6CCC5COC6)c(C(=O)O)cc4F)C3)c(Cl)c2)[C@@H]1C", "note": "[Compound 5-12, 4-[3-[2,6-Dichloro-4-[(2R)-3,3-dimethoxy-2-methylazetidin-1-yl]benzoyl]-2,4-dihydro-1,3-benzoxazin-8-yl]-5-fluoro-2-(3-oxa-8-azabicyclo[3.2.1]octan-8-yl)benzoic acid]", "EC50": 2.1},
      {"compound": "COC1CN(C2CN(c3cc(Cl)c(C(=O)N4COc5c(cccc5-c5cc(N6C7CCC6COC7)c(C(=O)O)cc5F)C4)c(Cl)c3)C2)C1", "note": "[Compound 5-13, 4-[3-[2,6-Dichloro-4-[3-(3-methoxyazetidin-1-yl)azetidin-1-yl]benzoyl]-2,4-dihydro-1,3-benzoxazin-8-yl]-5-fluoro-2-(3-oxa-8-azabicyclo[3.2.1]octan-8-yl)benzoic acid]", "EC50": 2.7},
      {"compound": "C[C@H]1COCCN1C1CN(c2cc(Cl)c(C(=O)N3COc4c(cccc4-c4cc(N5C6CCC5COC6)c(C(=O)O)cc4F)C3)c(Cl)c2)C1", "note": "[Compound 5-14, 4-[3-[2,6-Dichloro-4-[3-[(3S)-3-methylmorpholin-4-yl]azetidin-1-yl]benzoyl]-2,4-dihydro-1,3-benzoxazin-8-yl]-5-fluoro-2-(3-oxa-8-azabicyclo[3.2.1]octan-8-yl)benzoic acid]", "EC50": 2.9},
      {"compound": "C[C@@H]1COCCN1C1CN(c2cc(Cl)c(C(=O)N3COc4c(cccc4-c4cc(N5C6CCC5COC6)c(C(=O)O)cc4F)C3)c(Cl)c2)C1", "note": "[Compound 5-15, 4-[3-[2,6-Dichloro-4-[3-[(3R)-3-methylmorpholin-4-yl]azetidin-1-yl]benzoyl]-2,4-dihydro-1,3-benzoxazin-8-yl]-5-fluoro-2-(3-oxa-8-azabicyclo[3.2.1]octan-8-yl)benzoic acid]", "EC50": 3.1},
      {"compound": "COCC1(OC)CN(c2cc(Cl)c(C(=O)N3COc4c(cccc4-c4cc(N5C6CCC5COC6)c(C(=O)O)cc4F)C3)c(Cl)c2)C1", "note": "[Compound 6-1, 4-[3-[2,6-Dichloro-4-[3-methoxy-3-(methoxymethyl)azetidin-1-yl]benzoyl]-2,4-dihydro-1,3-benzoxazin-8-yl]-5-fluoro-2-(3-oxa-8-azabicyclo[3.2.1]octan-8-yl)benzoic acid]", "EC50": 2.1},
      {"compound": "COC1(C(F)(F)F)CN(c2cc(Cl)c(C(=O)N3COc4c(cccc4-c4cc(N5C6CCC5COC6)c(C(=O)O)cc4F)C3)c(Cl)c2)C1", "note": "[Compound 6-2, 4-[3-[2,6-Dichloro-4-[3-methoxy-3-(trifluoromethyl)azetidin-1-yl]benzoyl]-2,4-dihydro-1,3-benzoxazin-8-yl]-5-fluoro-2-(3-oxa-8-azabicyclo[3.2.1]octan-8-yl)benzoic acid]", "EC50": 2.8},
      {"compound": "O=C(O)c1cc(F)c(-c2cccc3c2OCN(C(=O)c2c(Cl)cc(N4CC(OCC(F)(F)F)C4)cc2Cl)C3)cc1N1C2CCC1COC2", "note": "[Compound 6-3, 4-[3-[2,6-Dichloro-4-[3-(2,2,2-trifluoroethoxy)azetidin-1-yl]benzoyl]-2,4-dihydro-1,3-benzoxazin-8-yl]-5-fluoro-2-(3-oxa-8-azabicyclo[3.2.1]octan-8-yl)benzoic acid]", "EC50": 5.7},
      {"compound": "COCC1(F)CN(c2cc(Cl)c(C(=O)N3COc4c(cccc4-c4cc(N5C6CCC5COC6)c(C(=O)O)cc4F)C3)c(Cl)c2)C1", "note": "[Compound 6-4, 4-[3-[2,6-Dichloro-4-[3-fluoro-3-(methoxymethyl)azetidin-1-yl]benzoyl]-2,4-dihydro-1,3-benzoxazin-8-yl]-5-fluoro-2-(3-oxa-8-azabicyclo[3.2.1]octan-8-yl)benzoic acid]", "EC50": 2},
      {"compound": "CCOC1CN(c2cc(Cl)c(C(=O)N3COc4c(cccc4-c4cc(N5C6CCC5COC6)c(C(=O)O)cc4F)C3)c(Cl)c2)C1", "note": "[Compound 6-5, 4-[3-[2,6-Dichloro-4-(3-ethoxyazetidin-1-yl)benzoyl]-2,4-dihydro-1,3-benzoxazin-8-yl]-5-fluoro-2-(3-oxa-8-azabicyclo[3.2.1]octan-8-yl)benzoic acid]", "EC50": 10},
      {"compound": "CC(C)OC1CN(c2cc(Cl)c(C(=O)N3COc4c(cccc4-c4cc(N5C6CCC5COC6)c(C(=O)O)cc4F)C3)c(Cl)c2)C1", "note": "[Compound 6-6, 4-[3-[2,6-Dichloro-4-(3-propan-2-yloxy-azetidin-1-yl)benzoyl]-2,4-dihydro-1,3-benzoxazin-8-yl]-5-fluoro-2-(3-oxa-8-azabicyclo[3.2.1]octan-8-yl)benzoic acid]", "EC50": 12},
      {"compound": "O=C(O)c1cc(F)c(-c2cccc3c2OCN(C(=O)c2c(Cl)cc(N4CC(OC5COC5)C4)cc2Cl)C3)cc1N1C2CCC1COC2", "note": "[Compound 6-7, 4-[3-[2,6-Dichloro-4-[3-(oxetan-3-yloxy)azetidin-1-yl]benzoyl]-2,4-dihydro-1,3-benzoxazin-8-yl]-5-fluoro-2-(3-oxa-8-azabicyclo[3.2.1]octan-8-yl)benzoic acid]", "EC50": 5.7}
    ]}
  ]
}
